The results in this text go back to ChEMBL document CHEMBL1201862, “PubChem BioAssay data set” (2004).

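96-well plates; 48 h exposure; 5 concentrations. Endpoints by linear interpolation between flanking doses. Not reached: highest tested concentration assigned. Here, GI50 denotes the concentration required for 50% inhibition of growth.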 Active and inactive are the calls of the source. No stated cut-off is given here; in the data, active = GI50 up to about 1.1 µM and inactive = higher.

Some test systems named below: SF-539; IGROV-1; SN12C; M14; OVCAR-8; HOP-92; RXF 393; SK-OV-3; HL-60; RPMI-8226; HCT-116; SF-268; NCI-H522; SK-MEL-28; UO-31; NCI/ADR-RES; EKVX; UACC-62; MOLT-4; COLO 205.
Assay in all cases: NCI anticancer screen, dose series, 48 h

In the case of `O=c1ccs[nH]1`, the GI50 with SF-539 is 5.92 µM (inactive); in the assay on IGROV-1 it was 24.2 µM (inactive); in the assay with SN12C it was 11.1 µM (inactive); in the assay with M14 it was 9.89 µM (inactive); with OVCAR-8 it was 12.7 µM (inactive); in the assay on HOP-92, 16.7 µM (inactive). Moreover, the GI50 was 7.96 µM (inactive) with RXF 393; 26.3 µM (inactive) with SK-OV-3; 3.13 µM (inactive) in the assay with HL-60; 2.7 µM (inactive) in the assay on RPMI-8226; 8.79 µM (inactive) with HCT-116; 14.2 µM (inactive) with SF-268. For the same compound, the GI50 in the assay on NCI-H522 was 0.42 µM (active); in the assay on SK-MEL-28, 25.1 µM (inactive); in the assay with UO-31 it was 7.21 µM (inactive); in the assay with NCI/ADR-RES, 17.7 µM (inactive); in the assay with EKVX, 3.37 µM (inactive); with UACC-62 it was 16.4 µM (inactive). Besides, the GI50 with MOLT-4 was 4.53 µM (inactive); in the assay on COLO 205 it was 8.91 µM (inactive).
On to `COC(=O)C(I(OS(=O)(=O)c1ccc(C)cc1)c1ccccc1)=P(c1ccccc1)(c1ccccc1)c1ccccc1`, for which the GI50 is 19.4 µM (inactive) with SF-539; 17.1 µM (inactive) with IGROV-1; 43.2 µM (inactive) in the assay on SN12C; 15.8 µM (inactive) with M14; 21.2 µM (inactive) in the assay on OVCAR-8; 14.7 µM (inactive) in the assay on HOP-92. The GI50 is 20.5 µM (inactive) in the assay with RXF 393; 25.1 µM (inactive) in the assay with SK-OV-3; 15.1 µM (inactive) in the assay on HL-60; 5.04 µM (inactive) in the assay on RPMI-8226; 16.3 µM (inactive) in the assay with HCT-116; 17.5 µM (inactive) in the assay with SF-268. In addition, the GI50 in the assay with NCI-H522 was 13 µM (inactive); in the assay with SK-MEL-28, 15.1 µM (inactive); with UO-31, 22.2 µM (inactive); in the assay on NCI/ADR-RES it was 64 µM (inactive); with EKVX, 23.7 µM (inactive); in the assay on UACC-62, 18.7 µM (inactive). Moreover, the results for the GI50 with MOLT-4 and in the assay on COLO 205 were 20.7 µM (inactive) and 3.13 µM (inactive), respectively.
